Where two headings read alike, the source gives them in different places. Values belong to the molecule of their own block, whether it stands above or below them.
Legend:
[1] = biological target: T1, human glucocorticoid receptor (hGR) (Homo sapiens, UniProt P04150); experiment: Steroid-induced nuclear translocation assay of hGR in CHO cells; type: cell-based
T1 construct: expressed in transfected cells; host or cells: Chinese Hamster Ovary (CHO) cells
T1 sequence (P04150 1-777): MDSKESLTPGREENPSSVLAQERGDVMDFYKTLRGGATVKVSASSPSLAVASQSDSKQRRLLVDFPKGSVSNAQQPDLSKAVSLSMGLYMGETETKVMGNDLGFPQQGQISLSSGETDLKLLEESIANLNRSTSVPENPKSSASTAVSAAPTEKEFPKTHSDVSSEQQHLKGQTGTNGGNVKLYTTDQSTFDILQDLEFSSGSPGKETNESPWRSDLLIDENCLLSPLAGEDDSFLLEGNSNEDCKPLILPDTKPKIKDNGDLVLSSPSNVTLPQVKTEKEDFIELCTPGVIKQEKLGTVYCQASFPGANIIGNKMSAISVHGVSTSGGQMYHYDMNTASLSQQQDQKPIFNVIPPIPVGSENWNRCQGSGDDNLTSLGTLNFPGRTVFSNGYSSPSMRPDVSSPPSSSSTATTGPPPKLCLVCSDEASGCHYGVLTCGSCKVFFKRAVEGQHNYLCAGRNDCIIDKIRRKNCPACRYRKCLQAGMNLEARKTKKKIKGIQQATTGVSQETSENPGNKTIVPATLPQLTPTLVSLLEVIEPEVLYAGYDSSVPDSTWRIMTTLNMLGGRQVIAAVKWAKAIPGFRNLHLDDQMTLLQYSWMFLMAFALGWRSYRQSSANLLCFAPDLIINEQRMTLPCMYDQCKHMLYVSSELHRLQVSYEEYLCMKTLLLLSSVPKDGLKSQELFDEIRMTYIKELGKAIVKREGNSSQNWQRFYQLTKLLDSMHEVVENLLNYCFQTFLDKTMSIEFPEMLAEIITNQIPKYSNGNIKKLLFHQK
Method: To determine whether PEGylated steroids can enter cells, and to compare their potency with the parent steroid triamcinolone, cells expressing the human glucocorticoid receptor (hGR) were incubated with increasing concentrations of TA, PEG-3-TA and PEG-7-TA, and the subcellular location of the hGR determined using immunocytochemistry and fluorescence microscopy.
Chinese Hamster Ovary (CHO) cells were plated on glass coverslips in 24-well plates, and transfected with DNA encoding the hGR using 0.25 μg DNA per well. One day following transfection, cells were incubated with increasing concentrations, from 1 nM to 10 μM, of TA, PEG-3-TA or PEG-7-TA, overnight at 37° C.
Stock solutions of steroids were prepared at 2 mM (TA) or 1 mM (PEG-3-TA, PEG-7-TA) in ethanol. Each test compound was diluted to 10 μM into culture medium supplemented with dextran-coated charcoal treated serum (DCCS) (final 5% serum), and then further diluted to the final concentrations. […] Dilutions of steroid were calculated to ensure that cells were not exposed to ethanol concentrations greater than 1% (v/v). […]
Following treatment with test compounds, cells were fixed in 3.7% (v/v) formaldehyde/PBS and permeabilized with 1% (v/v) Triton-X-100 in blocking buffer. Subcellular localization of the transfected hGR was determined by immunocytochemistry using an anti-GR antibody and a FITC-conjugated secondary antibody. […]

hGR = biological target: T2, hGR (Homo sapiens, UniProt P04150); experiment: Glucocorticoid receptor luciferase reporter assay in COS-7 cells; type: cell-based; conditions: for EC50: ± standard error, 20 hours incubation, TA n = 1
T2 construct: expressed in transfected cells; host or cells: COS-7 cells
T2 sequence (P04150 1-777): T1 sequence (P04150 1-777)
Excerpt: To quantitate the effect of PEGylation on the ability of the steroid to enter a cell and elicit a response, a glucocorticoid receptor reporter assay was employed. In this assay, treatment of cells with ligand leads to receptor-mediated expression of the firefly luciferase gene. The level of gene expression is quantitated by an enzymatic luciferase assay, and the amount of light produced is directly proportional to the expression level of the luciferase gene.
For these experiments, the Promega Dual Luciferase Reporter kit was employed. This involves a firefly luciferase reporter gene under the control of the Glucocorticoid Response Element (GRE-Luc), co-transfected into COS-7 cells with a gene encoding the hGR and a control vector containing a Renilla luciferase reporter gene under no promoter or enhancer elements (pRL-Null). The firefly luciferase gene is expressed only upon binding of a ligand-bound receptor to the GRE-Luc enhancer. […]
Cos-cells were plated in 96-well microplates and transfected with the relevant plasmids using standard procedures; all incubations and assays were performed in triplicate in these plates using medium containing DCCS, as described in section 8.3.1. […] Cells were then lysed, and the expression levels of firefly and Renilla luciferase were determined by sequential enzymatic assays provided by the Promega Dual Luciferase Reporter Assay kit. The resulting luminescence was detected using the Tecan Genios Pro Microplate reader, and data were analyzed using GraphPad Prism 4.0 software.
Readings obtained in the absence of steroid represent “basal” background levels of luciferase expression. All readings in the presence of steroid are expressed as a ratio compared with this, and termed “fold increase over basal.” Values obtained for firefly luciferase were normalized to those obtained for Renilla luciferase in the corresponding well in order to compensate for differences in transfection efficiency or cell number.

[2] = biological target: T3, recombinant human glucocorticoid receptor (Homo sapiens, UniProt P04150); experiment: Cell-free glucocorticoid receptor binding assay (fluorescence polarization); conditions: for Ki: ± standard error, TA n = 2
T3 construct: purchased PanVera
T3 sequence (P04150 1-777): T1 sequence (P04150 1-777)
Excerpt: The assay is based on competitive inhibition binding of a fluorescently labeled high affinity ligand, and generates Ki values that can be compared between the test compounds. […] Thus, as with EC5o values, a higher Ki value reflects a weaker binding affinity.
A commercially available GR binding assay based on fluorescence polarization (FP) was utilized to compare the binding affinity of the PEGylated and native steroids (PanVera Glucocorticoid Receptor Competitor Assay). The assay is based on competitive inhibition and measures the ability of the test compound to compete with a fluorescently labeled ligand (Fluormone™ GS1) for binding to a purified preparation of the recombinant human glucocorticoid receptor.
In its free unbound form, the fluorescent ligand behaves as a small molecule with a high rotational velocity or “tumbling rate”, and correspondingly low ability to polarize fluorescence light (i.e. a low FP). When bound to receptor, the ligand essentially becomes part of a larger molecule, with a slower rotational velocity and a higher FP.
Standard competition assay procedures were employed. Briefly, serial dilutions of the test compound were incubated in triplicate wells of a black 96-well microplate together with the fluorescent ligand, and reactions were initiated by addition of purified recombinant receptor. Assays were incubated in the dark for 2-4 h, and then polarization values were read using the fluorescence polarization function of the Tecan Genios Pro microplate reader.

[3] = in vivo; cited from earlier work
Mu-opiate = Mu-opiate (Homo sapiens, UniProt P35372); conditions: read-out: IC50, Mu-opiate binding activity
Chain of Mu-opiate (P35372 whole entry): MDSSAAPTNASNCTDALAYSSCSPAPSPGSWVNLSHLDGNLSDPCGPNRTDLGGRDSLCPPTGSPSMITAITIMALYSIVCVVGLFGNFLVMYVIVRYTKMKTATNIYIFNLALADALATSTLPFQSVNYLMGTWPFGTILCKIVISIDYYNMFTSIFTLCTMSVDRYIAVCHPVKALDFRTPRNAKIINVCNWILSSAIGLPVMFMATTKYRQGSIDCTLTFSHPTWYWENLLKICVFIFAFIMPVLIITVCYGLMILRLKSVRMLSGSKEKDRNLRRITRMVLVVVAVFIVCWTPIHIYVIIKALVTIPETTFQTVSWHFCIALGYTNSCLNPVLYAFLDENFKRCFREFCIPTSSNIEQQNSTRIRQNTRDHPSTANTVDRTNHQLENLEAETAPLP

[4] = Oral bioavailability: plasma concentration after oral gavage; type: in vivo, Sprague Dawley rats; conditions: rats, PEGylated compounds normalized to 1 mg/kg dose
Method: Female Sprague Dawley® rats (150-200 g) were obtained from Harlan Labs. […] The animals were fasted overnight (day −1), but water was provided ad libitum.
On the morning of dosing (day 0), each rat was weighed and the cannulas flushed with heparin (1000 U/mL). With the aid of a feeding tube, the animals were then dosed orally (gavage) with aqueous formulations containing either the PEGylated or the free drug. The dose was determined on a mg/kg body weight basis. […] At specific time intervals (1, 2 and 4 hours), blood samples (approximately 1.0 mL) were removed through the cannula, placed in 1.5 mL centrifuge tubes containing 14 μL of heparin, mixed and centrifuged to separate the plasma. The plasma samples were frozen (<−70° C.) until assayed. The plasma samples were purified by a precipitation technique and the analyte extracted and assayed using a high performance liquid chromatography (LC) method with a mass selective detector (MSD). […] When appropriate, an internal standard was used in the analysis.

μ-Opiate Receptors = μ-Opiate Receptors (Homo sapiens, UniProt P35372); experiment: biochemical; type: biochemical
Chain of μ-Opiate Receptors (P35372 whole entry): as above
Excerpt: In the table above, for each compound, the bioactivity is provided as a measure of the relative bioactivity of each of the various PEG conjugates in comparison to parent drug. The EC50 is the concentration of agonist that provokes a response halfway between the baseline and maximum response in a standard dose-response curve.

[5] = Solubility of tested compounds (Table 1)
[6] = In-vitro metabolism, incubation with liver microsomes
Method: The procedure calls for the preparation of a NADPH regenerating system (NRS) solution. […] After the solids were all dissolved, the solution was stored in an ice bath.
Male Sprague Dawley rat microsomes (0.5 mL at 20 mg/mL concentration; M00001 from In-vitro Technologies, Baltimore, Md.) were removed from the freezer and thawed in an ice bath. Forty μL of the liver microsomes were diluted to 100 μL with 60 μL of deionized water in a test vial. To the test vial, tris buffer, pH 7.4 (640 μL) and a test article stock (10 μL) were added to have 750 μL volume.
Each test vial and the NRS solution were separately placed in a 37° C. water bath for 5 minutes. The NRS solution (250 μL) was added into each test vial. The reaction timer was started at the addition of the NRS to the first test vial. Each sample (200 μL) was collected and then perchloric acid (20 μL) was added to terminate the reaction. The samples were collected at the following time points: 0-2, 20, 40 and 60 minutes. All of the terminated test vials were stored in an ice bath.
Acetonitrile (100 μL) was added into each test vial, which was then centrifuged at 3000×g for 5 minutes. Supernatant (230 μL) was withdrawn and then 10 μL of the test solution was assayed by an LC/MS method. The concentration of test article in each sample was measured and recorded at each time point.

Concentration for complete translocation of hGR to the nucleus [1]: ≥ 10 nM | hGR localization ([1]; 1 nM (lowest concentration), overnight): predominantly in the nucleus | EC50 (hGR): 0.545 nM | Ki [2]: 45.5 ± 21.1 nM
Structure (SMILES): C[C@]12C=CC(=O)C=C1CC[C@H]1[C@@H]3C[C@@H](O)[C@](O)(C(=O)CO)[C@@]3(C)C[C@H](O)[C@@]12F [TA, triamcinolone]

Structure (SMILES): CC1(C)O[C@@H]2C[C@H]3[C@@H]4CCC5=CC(=O)C=C[C@]5(C)[C@@]4(F)[C@@H](O)C[C@]3(C)[C@]2(C(=O)CO)O1 [TAA, triamcinolone acetonide]
Fold difference vs TAA (EC50, Luciferase assay) (hGR): 1 | EC50 (hGR): 0.062 ± 0.011 nM | Fold difference vs TAA (Ki, Binding assay) [2]: 1 | Ki [2]: 2.2 ± 0.5 nM

Structure (SMILES): Nc1nc(F)nc2c1ncn2[C@@H]1O[C@H](CO)[C@@H](O)[C@@H]1O [fludarabine]
Oral bioavailability [3]: about 70%

Structure (SMILES): C=CCN1CC[C@]23c4c5ccc(O)c4O[C@H]2C(OCCOCCOCCOC)CC[C@@]3(O)[C@H]1C5 (stereo partly drawn) [β-PEG3-Nal, β-6-CH3—(OCH2CH2)3—O-naloxol]
IC50 (Mu-opiate): 31.7 nM | Mean Plasma Concentration ± SD, 1 hr ([4]; 1 hr): 53.79 ± 5.19 ng/mL | Mean Plasma Concentration ± SD, 2 hr ([4]; 2 hr): 22.47 ± 8.78 ng/mL | Bioactivity relative to the parent compound (μ-Opiate Receptors; from EC50 values): about 35% | EC50 (μ-Opiate Receptors; μ-opiate receptors, in-vitro): 31.7 nM | Percentage of Active Remaining After Incubation with Liver Microsomes (0 min): 100.0% | Percentage of Active Remaining After Incubation with Liver Microsomes (20 min): 83.9% | Percentage of Active Remaining After Incubation with Liver Microsomes (40 min): 75.2% | Percentage of Active Remaining After Incubation with Liver Microsomes (60 min): 69.6% | Solubility [5]: soluble | Substrate quality for cytochrome P450 isozymes in isolated rat liver microsomes [6]: poor substrate
